Structures can show the parent of a compound that is named as a salt.
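Note: Luminescence-based viability readout, five doses per compound, normalized against on-plate DMSO and empty-well controls, followed by dose-response curve fitting for every drug.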

In this assay the test system is HCT116. Put plainly: efficacy (fitted maximal change in viability relative to DMSO control); higher = less cytotoxic (negative = loss of viability). The following applies: 48 h.
Consider `O=C(C1CCCCC1)N1CC(=O)N2CCc3ccccc3C2C1` (centres undefined) [Praziquantel], for which the efficacy is -15.9%.
As for `C[C@]12CC(=O)[C@H]3[C@@H](CC\C4=C\C(=O)\C=C/[C@]34C)[C@@H]1CC[C@]2(O)C(=O)CO` [Prednisone], the figure is 8.5%; as for `CC(C)C[C@H](CN)CC(=O)O` [Pregabalin], -8.5%; as for `CC(=O)[C@H]1CC[C@H]2[C@@H]3C/C=C4/C[C@@H](O)CC[C@]4(C)[C@H]3CC[C@]12C` [Pregnenolone], -6.65%.
Consider `COCCOc1ccc(N2CCN(CCn3ncc4c3nc(N)n3nc(-c5ccco5)nc43)CC2)cc1` [Preladenant], for which the efficacy was -16%.
In the case of `C=Cc1cc(O)cc2nc(-c3ccc(O)c(F)c3)oc12` [Prinaberel], the efficacy is -14.8%.
For `CC(C)(Sc1cc(C(C)(C)C)c(O)c(C(C)(C)C)c1)Sc1cc(C(C)(C)C)c(O)c(C(C)(C)C)c1` [Probucol] the value was -25.9%.
Regarding `CNNCc1ccc(C(=O)NC(C)C)cc1` [Procarbazine hydrochloride], the efficacy is -10.4%.
For `CC[C@H](NC(C)C)[C@H](O)C1=CC=C(O)C2=C1\C=C/C(=O)N2` [Procaterol hydrochloride] the value was 6.79%.
As for `CCCN(CCC)C(=O)C(CCC(=O)O)NC(=O)c1ccccc1` (centres undefined) [Proglumide], the figure is -18.3%; as for `CCCNCC(O)COc1ccccc1C(=O)CCc1ccccc1` (centres undefined) [Propafenone hydrochloride], -43.8%.
Consider `CCCOc1ccc(C(=O)OCCN(CC)CC)cc1N` [Proparacaine], for which the efficacy is -20.7%.
As to `CC(C)c1cccc(C(C)C)c1O` [Propofol], the efficacy is -8.33%.
As for `CCCCC[C@H](O)/C=C/[C@H]1[C@H](O)CC(=O)[C@@H]1C/C=C\CCCC(=O)O` [Prostaglandin E2], the efficacy is -28.6%.
As to `CCCc1cc(C(N)=S)ccn1` [Protionamide], the efficacy is -9.17%.
Consider `OC[C@H]1O[C@H]([C@H](O)[C@@H](O)[C@@H]1O)C2=C(O)C=CC3=C2O/C=C(C3=O)/C4=CC=C(O)C=C4` [Puerarin], for which the efficacy is -15.8%.
On to `CC(C)[C@H](CO)Nc1nc(Nc2ccc(C(=O)O)c(Cl)c2)c2ncn(C(C)C)c2n1` [Purvalanol B], for which the efficacy was -11.6%.
As for `CC(C)(C)C1=NC2=C([NH]1)C3=CC=C(F)C=C3C4=C2\C=C/NC4=O` [Pyridone 6], the efficacy is -28.4%.
Consider `OC1=CC2=C(C(=C1)O)C(=O)\C(=C(/O2)C3=CC(=C(O)C=C3)O)O` [Quercetin], for which the efficacy was -10.2%.
As to `C=C[C@H]1CN2CCC1C[C@@H]2C(O)c1ccnc2ccc(OC)cc12` (some centres undefined) [Quinidine], the efficacy is -25.6%.
Take `CN1C(=O)\C(=C/C2=C1N=C(NC3CCOCC3)N=C2)OC4=C(F)C=C(F)C=C4` [R-1487]: the efficacy was -14.4%.
As to `CCc1cccc2c3c([nH]c12)[C@@](CC)(CC(=O)O)OCC3` [R-Etodolac], the efficacy is -22.7%.
For `CNC(=O)c1ccc(N2C(=S)N(c3ccc(C#N)c(C(F)(F)F)c3)C(=O)C23CCC3)cc1F` [RD-162], the efficacy is -28.5%.
As for `C[C@H]1CN(CCN1C2=CN=C(NC/3=C/C(=C\N(C)C3=O)C4=CC=NC(=C4CO)N5CC[N]6C7=C(CC(C)(C)C7)C=C6C5=O)C=C2)C8COC8` [RG-7845 (GDC-0853)], the figure is -34.1%; as for `OCc1ccc(-c2ccc(-c3ccc(CO)s3)o2)s1` [RITA], -46%; as for `Cc1ccc(Nc2cc(N[C@@H]3CCCC[C@@H]3N)nnc2C(N)=O)nc1C` [RO-9021], -74.9%.
Turning to `O=C(CBr)N1CC([N+](=O)[O-])([N+](=O)[O-])C1` [RRx-001], the efficacy was -23.7%.
As for `CCC(C)CNCC(=O)N1CCc2sccc2C1c1cccc(C)n1` (centres undefined) [RUSKI-201], the efficacy is -17%.
`CN(CC1=CC2=C(N\C(=N/C2=O)C)C=C1)C3=CC=C(S3)C(=O)N[C@@H](CCC(O)=O)C(O)=O` [Raltitrexed]: the efficacy is -59%.
In the case of `CCC(=O)NCC[C@@H]1CCc2ccc3c(c21)CCO3` [Ramelteon], the efficacy is -25.2%.
On to `CCOC(=O)[C@H](CCc1ccccc1)N[C@@H](C)C(=O)N1[C@H](C(=O)O)C[C@@H]2CCC[C@@H]21` [Ramipril], for which the efficacy was -13.7%.
Consider `COc1ccccc1OCC(O)CN1CCN(CC(=O)Nc2c(C)cccc2C)CC1` (centres undefined) [Ranolazine], for which the efficacy was -11.9%.
Regarding `C#CCN[C@@H]1CCc2ccccc21` [Rasagiline mesylate], the efficacy is -9.57%.
As for `CCOc1cc(CC(=O)N[C@@H](CC(C)C)c2ccccc2N2CCCCC2)ccc1C(=O)O` [Repaglinide], the figure is -23%.
As for `CCOCc1nc2c(N)nc3ccccc3c2n1CC(C)(C)O` [Resiquimod], the figure is -14.3%.
Consider `CCOC(=O)Nc1ccc(NCc2ccc(F)cc2)cc1N` [Retigabine], for which the efficacy is -11.8%.
As for `O=C(O)c1cc(O)c2c(c1)C(=O)c1cccc(O)c1C2=O` [Rhein], the efficacy is -14.9%.
As to `NC(=O)c1ncn([C@@H]2O[C@H](CO)[C@@H](O)[C@H]2O)n1` [Ribavirin], the efficacy stood at 18.5%.
Regarding `CN(C)C(=O)c1cc2cnc(Nc3ccc(N4CCNCC4)cn3)nc2n1C1CCCC1` [Ribociclib (LEE011)], the efficacy was -12.5%.
For `CC1=CC/2=C(C=C1C)N(C[C@@H](O)[C@@H](O)[C@@H](O)CO)C/3=N/C(=O)NC(=O)C3=N2` [Riboflavin] the value was -9.8%; for `CO[C@H]1/C=C/O[C@@]2(C)Oc3c(C)c(O)c4c(O)c(c(/C=N/N5CCN(C)CC5)c(O)c4c3C2=O)NC(=O)/C(C)=C\C=C\[C@H](C)[C@H](O)[C@@H](C)[C@@H](O)[C@@H](C)[C@H](OC(C)=O)[C@@H]1C` [Rifampicin], -20.5%; for `CO[C@H]1/C=C/O[C@@]2(C)Oc3c(C)c(O)c4c(O)c(c(/C=N\N5CCN(C6CCCC6)CC5)c(O)c4c3C2=O)NC(=O)/C(C)=C\C=C\[C@H](C)[C@H](O)[C@@H](C)[C@@H](O)[C@@H](C)[C@H](OC(C)=O)[C@@H]1C` [Rifapentine], -59.1%.
As for `CO[C@H]1/C=C/O[C@@]2(C)Oc3c(C)c(O)c4c(O)c(c5c(nc6cc(C)ccn65)c4c3C2=O)NC(=O)/C(C)=C\C=C\[C@H](C)[C@H](O)[C@@H](C)[C@@H](O)[C@@H](C)[C@H](OC(C)=O)[C@@H]1C` [Rifaximin], the figure is -88.6%; as for `C1C\N=C(\NC(C2CC2)C3CC3)O1` [Rilmenidine], -6.97%; as for `COC(=O)N(C)c1c(N)nc(-c2nn(Cc3ccccc3F)c3ncccc23)nc1N` [Riociguat], -5.69%.
As for `C[C@H]1CNCCCN1[S+](=O)([O-])c1cccc2cncc(F)c12` [Ripasudil], the figure is -11%; as for `O=P(O)(O)C(O)(Cc1cccnc1)P(=O)(O)[O][Na]` (centres undefined) [Risedronate sodium], -16.1%.
With `CC(NCCc1ccc(O)cc1)C(O)c1ccc(O)cc1` (centres undefined) [Ritodrine hydrochloride], the efficacy was -19.4%.
With `O=C(NC[C@H]1CN(c2ccc(N3CCOCC3=O)cc2)C(=O)O1)c1ccc(Cl)s1` [Rivaroxaban], the efficacy was -24.9%.
For `C[N]1C=C(C2=C1C=CC=C2)\C3=C(\C(=O)NC3=O)C4=C5CC(CN)CC[N]5C6=C4C=CC=C6` (centres undefined) [Ro-31-8425], the efficacy was -33.7%.
Take `COc1cc(C(C)C)c(Oc2cnc(NC(CO)CO)nc2N)cc1I` [Ro-51]: the efficacy came to 7.2%.
On to `O=C(C[C@@H]1C/C=C\CCC(=O)O[C@H](c2ccccc2)CNC1=O)NCc1ccc(Cl)cc1` [Robotnikinin], for which the efficacy is -22.6%.
On to `C=CC[N+]1([C@H]2C[C@H]3[C@@H]4CC[C@H]5C[C@H](O)[C@@H](N6CCOCC6)C[C@]5(C)[C@H]4CC[C@]3(C)[C@H]2OC(C)=O)CCCC1` [Rocuronium bromide], for which the efficacy was -14.6%.
As for `C[S+]([O-])(=O)C1=CC=C(C=C1)C/2=C(/C(=O)OC2)C3=CC=CC=C3` [Rofecoxib], the efficacy was -13.7%.
For `O=C(Nc1c(Cl)cncc1Cl)c1ccc(OC(F)F)c(OCC2CC2)c1` [Roflumilast], the efficacy was -20.6%.
As for `COc1ccc(C2CNC(=O)C2)cc1OC1CCCC1` (centres undefined) [Rolipram], the figure is -7.4%; as for `CCCn1c(=O)c2[nH]c(C34CC5CC3C[C@@H](C5)C4)nc2n(CCC)c1=O` [Rolofylline], -6.71%; as for `CN(C1=CC=CC=C1)C(=O)C/2=C(O)/C3=C(C=CC=C3)N(C)C2=O` [Roquinimex], -11.9%.
Take `CN(CCOc1ccc(CC2SC(=O)NC2=O)cc1)c1ccccn1` (centres undefined) [Rosiglitazone]: the efficacy was -13.8%.
Turning to `CC(=O)c1c(O)c(C)c(O)c(Cc2c(O)c3c(c(C(=O)/C=C/c4ccccc4)c2O)OC(C)(C)C=C3)c1O` [Rottlerin], the efficacy was -8.89%.
`CCOC(=O)/C=C/[C@H](C[C@@H]1CCNC1=O)NC(=O)[C@@H](CC(=O)[C@@H](NC(=O)c1cc(C)on1)C(C)C)Cc1ccc(F)cc1` [Rupintrivir]: the efficacy was -12.7%.
For the compound `CC(C)(C)c1cc(C(=O)O)c(NC(=O)Nc2ccc3[nH]ncc3c2)s1` [S6K-18], the efficacy is -16.6%.
Turning to `Cc1ccc([S+](=O)([O-])OCC(=O)Nc2ccc(C(=O)O)c(O)c2)cc1` [S31-201], the efficacy is -5.21%.
As for `CC(C)Nc1cc(C(F)(F)F)cc2nc(NC(=O)c3cccnc3)nn12` [S-99], the figure is -15%; as for `C[C@@H]1COCCN1C\2=C\C(=O)N\3CC[C@H](N(CC4=CN=CC(=C4)Cl)C3=N2)C(F)(F)F` [SAR-405], -26.6%; as for `O=[S+]([O-])(CC1CS1)c1ccc(Oc2ccccc2)cc1` (centres undefined) [SB-3CT], -55.8%.
`O=C(CO)N1CCC(c2n[nH]c(-c3ccc(Cl)cc3)c2-c2ccncn2)CC1` [SD-06]: the efficacy amounted to 17.8%.
As for `NC(=O)c1ccc2[nH]ccc2c1` [SD-169], the figure is -11.3%; as for `Fc1ccc(Cl)cc1-c1nc(Nc2ccncc2)c2nccnc2n1` [SD-208], -22.5%.

Values taken from the supplement of paper PMC10290057.
